Source: publication PMC6017732, “Identification and Characterizations of Novel, Selective Histone Methyltransferase SET7 Inhibitors by Scaffold Hopping- and 2D-Molecular Fingerprint-Based Similarity Search” (Molecules : A Journal of Synthetic Chemistry and Natural …, 2018)

Biological target: T1, SET7 (Homo sapiens, UniProt Q8WTS6)
T1 sequence (Q8WTS6 1-366): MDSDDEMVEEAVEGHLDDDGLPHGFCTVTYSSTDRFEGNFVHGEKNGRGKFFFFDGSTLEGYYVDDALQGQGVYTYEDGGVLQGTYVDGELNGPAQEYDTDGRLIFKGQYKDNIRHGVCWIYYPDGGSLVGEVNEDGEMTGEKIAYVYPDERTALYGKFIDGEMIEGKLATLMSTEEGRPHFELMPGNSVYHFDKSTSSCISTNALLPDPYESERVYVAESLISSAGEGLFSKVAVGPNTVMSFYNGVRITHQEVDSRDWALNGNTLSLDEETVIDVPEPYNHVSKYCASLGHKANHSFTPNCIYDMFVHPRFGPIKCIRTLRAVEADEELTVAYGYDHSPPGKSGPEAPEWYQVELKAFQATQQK
Assay: AlphaLISA SET7 inhibition assay
Assay type: biochemical
Details: AlphaLISA assay, SAR discussion
Procedure: AlphaLISA assays were applied to determine the inhibitory activity targeting SET7. The purified SET7 protein was incubated in modified Tris buffer in 384-well plates (Perkin Elmer, Cat. No. 6007299, Waltham, MA, USA) at room temperature for 15 min. The compounds were transferred to the assay plate using Echo in 100% DMSO, and substrate solution was added to each well to start the reaction. Acceptor and donor beads were added and incubated for 60 min at room temperature, shielded from light. The endpoint was evaluated with EndSpire in Alpha mode. The experimental data was fitted in GraphPad Prism 5 to obtain inhibition values using the equation as follows:(1) Inhibition %= Max−Siginal/Max−Min×100%

Structure (SMILES)	activity against SET7 (in words)
COc1cc(/C=N/NC(=O)c2ccc(-c3ccccc3)cc2)c([N+](=O)[O-])cc1OC [DC-S305]	no activity

Same assay, conditions: AlphaLISA assay, SET7

Structure (SMILES)	IC50
COc1cc(/C=N/NC(=O)c2ccc(-c3ccccc3)cc2)ccc1OC(C)=O [DC-S306]	20 µM
O=C(CCC(=O)N/N=C/c1cc([N+](=O)[O-])ccc1Cl)NCc1ccccc1 [DC-S314]	46 µM
O=C(NNC(=O)c1ccc([N+](=O)[O-])cc1)c1ccc(-c2ccccc2)cc1 [DC-S334]	9.9 µM
O=C(NN=Cc1cc2c(cc1Br)OCO2)c1ccc([N+](=O)[O-])cc1 [DC-S351]	3.4 µM
O=C(NN=Cc1ccc(-c2ccccc2Cl)o1)c1ccc([N+](=O)[O-])cc1 [DC-S364]	3.7 µM

Same assay, conditions: AlphaLISA assay, SET7, 100 μM; read-out: Inhibition Ratio at 100 μM/%

Structure (SMILES)	inhibition at 100 µM
O=C(N/N=C/c1ccc(Cl)c([N+](=O)[O-])c1)c1ccc(-c2ccccc2)cc1 [DC-S304]	44%
COc1cc(/C=N/NC(=O)c2ccc(-c3ccccc3)cc2)c([N+](=O)[O-])cc1OC [DC-S305]	-5%
COc1cc(/C=N/NC(=O)c2ccc(-c3ccccc3)cc2)ccc1OC(C)=O [DC-S306]	94%
COc1ccc(/C=N/NC(=O)c2ccc(-c3ccccc3)cc2)cc1O [DC-S307]	8%
COc1ccc(/C=N/NC(=O)c2ccc(-c3ccccc3)cc2)c(OC)c1Br [DC-S308]	7%
Cc1cccc(/C=N/NC(=O)c2ccc(-c3ccccc3)cc2)c1 [DC-S309]	-5%
CCOc1ccc(/C=N/NC(=O)c2ccc(-c3ccccc3)cc2)c(OCC)c1 [DC-S310]	-6%
O=C(N/N=C/c1cccc(Cl)c1Cl)c1ccc(-c2ccccc2)cc1 [DC-S312]	-3%
O=C(N/N=C/c1c(Cl)cccc1Cl)c1ccc(-c2ccccc2)cc1 [DC-S313]	-6%
O=C(CCC(=O)N/N=C/c1cc([N+](=O)[O-])ccc1Cl)NCc1ccccc1 [DC-S314]	77%
O=C(N/N=C/c1cc([N+](=O)[O-])ccc1Cl)C(c1ccccc1)c1ccccc1 [DC-S315]	46%
O=C(N/N=C/c1cc([N+](=O)[O-])ccc1Cl)c1cccc(O)c1 [DC-S316]	37%
COC(=O)N/N=C/c1cc([N+](=O)[O-])ccc1Cl [DC-S318]	17%
Nc1ccccc1C(=O)N/N=C/c1cc([N+](=O)[O-])ccc1Cl [DC-S319]	14%
O=C(N/N=C/c1cc([N+](=O)[O-])ccc1Cl)c1ccc(O)cc1 [DC-S320]	11%
O=C(N/N=C/c1cc([N+](=O)[O-])ccc1Cl)c1ccc(O)cc1O [DC-S321]	9%
O=C(NNC(=O)c1ccc([N+](=O)[O-])cc1)c1ccc(-c2ccccc2)cc1 [DC-S334]	96%
O=C(NNC(=O)c1cccc([N+](=O)[O-])c1)c1ccc(-c2ccccc2)cc1 [DC-S335]	12%
COc1ccc(C(=O)NNC(=O)c2ccc(-c3ccccc3)cc2)cc1 [DC-S336]	49%
O=C(NNC(=O)c1ccc(-c2ccccc2)cc1)c1ccccc1 [DC-S337]	1%
O=C(NNC(=O)c1cccc(Cl)c1)c1ccc(-c2ccccc2)cc1 [DC-S338]	1%
O=C(NNC(=O)c1ccc(-c2ccccc2)cc1)c1ccc(F)cc1 [DC-S339]	-6%
O=C(CCc1ccccc1)NNC(=O)c1ccc(-c2ccccc2)cc1 [DC-S340]	-6%
O=C(NNC(=O)c1ccccc1C(=O)O)c1ccc(-c2ccccc2)cc1 [DC-S341]	-10%
O=C(NNC(=O)C(F)(F)F)c1ccc(-c2ccccc2)cc1 [DC-S342]	-13%

Structure (SMILES)	inhibition at 100 µM
O=C(NN=Cc1ccc(Cl)s1)c1ccc([N+](=O)[O-])cc1 [DC-S344]	32%
O=C(NN=Cc1cccc(Cl)c1)c1ccc([N+](=O)[O-])cc1 [DC-S345]	29%
Nc1ccc(C=NNC(=O)c2ccc([N+](=O)[O-])cc2)cc1 [DC-S346]	21%
O=C(NN=Cc1ccc[nH]1)c1ccc([N+](=O)[O-])cc1 [DC-S347]	10%
Cc1c(C=NNC(=O)c2ccc([N+](=O)[O-])cc2)cnn1C [DC-S348]	-11%
O=C(NN=Cc1cc2c(cc1[N+](=O)[O-])OCO2)c1ccc([N+](=O)[O-])cc1 [DC-S349]	-1%
O=C(NN=Cc1cn(Cc2ccc(Cl)cc2Cl)c2ccccc12)c1ccc([N+](=O)[O-])cc1 [DC-S350]	6%
O=C(NN=Cc1cc2c(cc1Br)OCO2)c1ccc([N+](=O)[O-])cc1 [DC-S351]	96%
COc1cc(OC)c(C=NNC(=O)c2ccc([N+](=O)[O-])cc2)cc1Br [DC-S352]	39%
COc1ccc(C=NNC(=O)c2ccc([N+](=O)[O-])cc2)cc1 [DC-S353]	35%
O=C(NN=Cc1cc([N+](=O)[O-])ccc1N1CCCCC1)c1ccc([N+](=O)[O-])cc1 [DC-S354]	35%
O=C(NN=Cc1ccccc1OC(=O)c1ccc([N+](=O)[O-])cc1)c1ccc([N+](=O)[O-])cc1 [DC-S355]	20%
O=C(NN=Cc1c[nH]nc1-c1ccc(Cl)cc1)c1ccc([N+](=O)[O-])cc1 [DC-S356]	17%
COc1ccc(C=NNC(=O)c2ccc([N+](=O)[O-])cc2)c2ccccc12 [DC-S357]	13%
O=C(NN=Cc1ccccc1OC(=O)c1ccc(Cl)cc1)c1ccc([N+](=O)[O-])cc1 [DC-S358]	6%
O=C(NN=Cc1c(OC(=O)c2ccc(Cl)cc2)ccc2ccccc12)c1ccc([N+](=O)[O-])cc1 [DC-S359]	5%
COc1ccc(-c2ccc(C=NNC(=O)c3ccc([N+](=O)[O-])cc3)o2)cc1Cl [DC-S360]	4%
COc1ccc2ccccc2c1C=NNC(=O)c1ccc([N+](=O)[O-])cc1 [DC-S361]	-1%
COc1cc(C=NNC(=O)c2ccc([N+](=O)[O-])cc2)ccc1OC(C)=O [DC-S362]	-4%
O=C(NN=Cc1ccccc1OCc1cccc(Br)c1)c1ccc([N+](=O)[O-])cc1 [DC-S363]	-15%
O=C(NN=Cc1ccc(-c2ccccc2Cl)o1)c1ccc([N+](=O)[O-])cc1 [DC-S364]	54%
COc1ccc(C(=O)NN=Cc2ccc([N+](=O)[O-])cc2)cc1OC [DC-S365]	10%
O=C(NN=Cc1ccc([N+](=O)[O-])cc1)c1ccc(CSc2ccccc2)cc1 [DC-S366]	9%
O=C(NN=Cc1ccc([N+](=O)[O-])cc1)c1cccc(Cl)c1 [DC-S367]	-1%

Biological target: T1, SET7
Assay: 3H-labeled radioisotope methylation assay
Assay type: biochemical
Details: 3H radioactive methylation assay
Procedure: As for ^3Hradioactive methylation assay, SAH was used as the reference compound and the compounds were tested in 10 concentrations in duplicate in modified Tris buffer (1× assay buffer). The following materials were purchased: SET7 (Enzo, Cat. No. ALX-201-178, New York, NY, USA), [^3H]-SAM (PerkinElmer Inc., Lot. No. 1790854), SAH (Sigma, Cat. No. A9384-25MG, St. Louis, MO, USA) and 384-well Flashplate (Perkin Elmer, Cat. No. SMP410A001PK,). The compounds were transferred to the assay plate by Echo 550 with 3-fold dilution in 100% DMSO where the final DMSO concentration is 1%. Then the enzyme solution was transferred to the assay plate and 1× assay buffer was transferred for low control. After 15 min incubation at room temperature, peptide and [^3H]-SAM mix solution was transferred to each well to start the reaction. The cold SAM in 1× buffer was added to each well to stop the reaction after 60 min incubation at room temperature. 25 μL of the whole reaction system per well was transferred to Flashplate which was washed with dH2O and 0.1% Tween-20 for three times after 60 min incubation. The data was read on Microbeta. All the inhibition assays are performed in duplicate.

Structure (SMILES)	IC50
Nc1ncnc2c1ncn2[C@@H]1O[C@H](CSCC[C@H](N)C(=O)O)[C@@H](O)[C@H]1O [SAH, reference compound]	5.4 µM

Tested on: SET7
Assay: not given
Details: SET7, previous research of the authors; cited from earlier work

Structure (SMILES)	IC50
COC(=O)c1c(N)sc(C(=O)Nc2cccc([N+](=O)[O-])c2)c1C [DC-S238]	4.9 µM
CCOC(=O)c1c(N)sc(C(=O)Nc2cccc([N+](=O)[O-])c2)c1C [DC-S239]	4.6 µM

Same assay, conditions: SET7; cited from earlier work

Structure (SMILES)	IC50
O=C([C@@H](Cc1cccc(C(F)(F)F)c1)NS(=O)(=O)c1cc(F)c2c(c1)CCNC2)N1CCCC1 [(R)-PFI-2]	0.002 µM
